Laboratory results reported in patent US8492442B2, “Medicinal composition, food or drink having effect of enhancing parasympathetic nervous activity” (Suntory Holdings Limited, priority 2007, dated 2013).
“Also recorded” adds a separate entry of the source.

Columns and labels:
[1] = tested on: kidney sympathetic nervous activity; assay: Rat kidney sympathetic nervous activity after transduodenal administration (electrical discharge recording); assay type: in vivo; conditions: male Wister rats, urethane-anesthesia
Experimental: In these experiments, use was made of male Wister rats weighing about 300 to 350 g which had been preliminarily fed in a thermostatic chamber (24° C.) with a light-dark cycle of 12-hour intervals (under illumination from 8:00 to 20:00) for 1 week or longer. A single rat was employed for each nervous experiment. The animals were fed with a feed (MF: Oriental Yeast) and water ad libitum. The autonomic nervous activity were examined by fasting the rats for 5 hours on the day of the experiment and then subjecting to an abdominal surgery under urethane-anesthesia (1 g/kg, i.p.). Then, the effects of the transduodenal administration of L-phenyl lactic acid and D-phenyl lactic acid (10 μg or 100 μg) on the kidney sympathetic nervous activity were measured in accordance with the method reported by T. Yamano et al., Neurosci. Lett. 313:78-82 (2001), A. Niijima et al., Autonom. Neurosci.: Basic & Clinical 97:99-102 (2002) and M. Tanida et al., Am. J. Physiol: Regulatory, Integrative and Comparative Physiology 288:R447-R455 (2005). Namely, the sympathetic nerve projecting toward the kidney was cut before the organ and the central side was placed on a silver electrode. Thus, a change in the electrical activity was monitored. To prevent dryness, the electrode had been preliminarily dipped in a mixture of liquid paraffin and petroleum jelly for a sufficient period of time. From the initiation of the surgery to the completion of the measurement, a tube was inserted into the respiratory tract for the management of the airway. The body temperature (rat rectal temperature) was maintained at 35±0.5° C. with the use of a heater. The transduodenal administration was conducted by dissolving L-phenyl lactic acid or D-phenyl lactic acid in physiological saline to give a concentration of 10 μg/2 ml or 100 μg/2 ml, and administering 2 ml/animal of each solution at a rate of 1 ml/min through a polyethylene tube inserted into the duodenum. Electrical nervous activity thus obtained were amplified with a condenser type differential amplifier, monitored with an oscilloscope and recorded on a magnetic tape. To separate the raw data from the background noise, all of the nervous activities were converted into standard pulses by use of a slicer and a window discriminator before analyzing. Discharge frequencies were indicated on a pen recorder by using a rate meter at a reset time of 5 seconds. The data was analyzed based on the average discharge frequency per 5 seconds (pulse/5 sec) and expressed in percentage by referring the level before the administration as to 100%. A group with the administration of physiological saline was employed as a control.

[2] = tested on: blood pressure; assay: Rat blood pressure after transduodenal administration (femoral artery cannula, transducer); assay type: in vivo; conditions: 100 μg, FIG. 4
[3] = tested on: stomach vagal (parasympathetic) nervous activity; assay: Rat stomach vagal (parasympathetic) nervous activity after transduodenal administration; assay type: in vivo; conditions: 100 μg, FIG. 5
[4] = tested on: Aspergillus niger; conditions: etc.; cited from earlier work
[5] = tested on: pathogenic Escherichia coli O-157; conditions: phenyl lactic acid produced by use of a lactic acid bacterium; cited from earlier work
[6] = tested on: methicillin-resistant Staphylococcus aureus; conditions: phenyl lactic acid produced by use of a lactic acid bacterium; cited from earlier work

SMILES	effect on kidney sympathetic nervous activity ([1]; 10 μg/animal, FIG. 2)	effect on kidney sympathetic nervous activity ([1]; 100 μg/animal, FIG. 3)	effect on rat blood pressure [2]	effect on rat stomach vagal (parasympathetic) nervous activity [3]	antifungal activity [4]	antibacterial effect [5]	antibacterial effect [6]
O=C(O)[C@H](O)Cc1ccccc1 [D-phenyl lactic acid, D-β-3-phenyl lactic acid]	enhanced	reduced	hypotensive effects				
O=C(O)[C@@H](O)Cc1ccccc1 [L-phenyl lactic acid, L-β-3-phenyl lactic acid]	little effect	reduced; also recorded: higher reducing effect	hypotensive effects	enhancement			
O=C(O)C(O)Cc1ccccc1 (stereo not shown) [phenyl lactic acid, 2-hydroxy-3-phenyl propionic acid]					antifungal activity	antibacterial effect	antibacterial effect
